The structures appear in SMILES notation. Numbering of substitutions follows the chain as printed.

The target in test [1] is T1, V83G mutant EAG1 channels (Mus musculus, UniProt Q60603, V83G).
T1 construct: expressed in transfected cells; host or cells: Xenopus laevis oocytes injected with cRNA
T1 sequence (Q60603 1-989 V83G): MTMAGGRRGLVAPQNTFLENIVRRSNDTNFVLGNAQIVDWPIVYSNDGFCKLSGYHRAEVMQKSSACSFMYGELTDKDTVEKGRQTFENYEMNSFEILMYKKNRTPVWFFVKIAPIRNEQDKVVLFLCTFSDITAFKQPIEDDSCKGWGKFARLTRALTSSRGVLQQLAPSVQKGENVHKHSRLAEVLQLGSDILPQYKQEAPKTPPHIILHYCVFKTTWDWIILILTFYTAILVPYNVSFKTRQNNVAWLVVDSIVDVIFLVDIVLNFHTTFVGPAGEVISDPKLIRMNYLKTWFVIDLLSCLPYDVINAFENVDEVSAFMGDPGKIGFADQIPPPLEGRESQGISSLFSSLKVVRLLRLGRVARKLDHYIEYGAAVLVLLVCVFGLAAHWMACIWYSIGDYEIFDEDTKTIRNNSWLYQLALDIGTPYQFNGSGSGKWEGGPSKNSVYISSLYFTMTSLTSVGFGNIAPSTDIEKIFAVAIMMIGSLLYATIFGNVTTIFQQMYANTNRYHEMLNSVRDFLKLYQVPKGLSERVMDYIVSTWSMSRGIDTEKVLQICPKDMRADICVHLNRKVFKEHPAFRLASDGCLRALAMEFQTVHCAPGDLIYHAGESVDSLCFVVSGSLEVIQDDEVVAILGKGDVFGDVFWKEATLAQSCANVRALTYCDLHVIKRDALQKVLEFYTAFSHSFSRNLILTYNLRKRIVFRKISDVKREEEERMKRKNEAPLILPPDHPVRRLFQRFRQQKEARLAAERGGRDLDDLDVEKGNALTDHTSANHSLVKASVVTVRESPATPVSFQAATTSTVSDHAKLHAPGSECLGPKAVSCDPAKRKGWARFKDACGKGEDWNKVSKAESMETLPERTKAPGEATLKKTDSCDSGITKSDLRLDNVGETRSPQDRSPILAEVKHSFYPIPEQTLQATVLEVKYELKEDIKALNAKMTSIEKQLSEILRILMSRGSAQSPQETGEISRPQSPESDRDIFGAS
The experiment in a line: TEVC recording, imipramine inhibition, V83G mutant. Type of test: cell-based. The note with it: V83G mutant EAG1 channel, +50 mV. The source says: (§1) The cDNA encoding wild-type (WT) mouse EAG1 channels in pGH19 vector was kindly provided by G. Robertson (University of Wisconsin-Madison, Madison, WI). The mutant ΔPAS EAG1 channel in pGH19 with the deletion of the PAS domain residues 2 to 130 was generated by Bio Basic Inc and verified by DNA sequencing (Genewiz). Mutant EAG1 channels with single amino acid substitutions were generated by Genewiz and verified by DNA sequencing. cRNA was transcribed using the T7 mMessage mMachine kit (Thermo Fisher Scientific). Defolliculated Xenopus laevis oocytes were purchased from Ecocyte Bioscience or Xenopus1 and injected with the cRNA using a Nanoinject II oocyte injector (Drummond).
(§2) For EAG1 current recordings, oocytes were placed into a handmade chamber containing a bath solution for the current recording. The currents were recorded using a TEVC technique with OC-725C amplifier (Warner Instruments) and pClamp11 software (Molecular Devices). The signals were digitized using Digidata 1550 (Molecular Devices). Patch pipettes were pulled from borosilicate glass and had resistances of 0.7 to 1.5 MΩ. The recording (bath) solution contained 96 mM NaCl, 4 mM KCl, 0.1 mM CaCl2, 1.8 mM MgCl2, and 5 mM HEPES, pH 7.5. The pipette solution contained 3 M KCl. […]

Test [2] addresses T2, Y71F mutant EAG1 channels (Mus musculus, UniProt Q60603, Y71F).
T2 construct: expressed in transfected cells; host or cells: Xenopus laevis oocytes injected with cRNA
T2 sequence (Q60603 1-989 Y71F): T1 sequence (Q60603 1-989 V83G) with Y71F, G83V
The experiment in a line: TEVC recording, imipramine inhibition, Y71F mutant. The class given is cell-based. Particulars: Y71F mutant EAG1 channel, +50 mV.
Excerpt: as §1, §2

Consider `CN(C)CCCN1c2ccccc2CCc2ccccc21` [imipramine], for which the IC50 came to 44.3 ± 2.6 µM in test [1] and 58 ± 3.7 µM in test [2].

As a reminder, the IC50 is the concentration needed to halve the response being measured.

The values above are taken from article PMC10687071 (The Journal of Biological Chemistry, 2023).
